“And” between values parts separate entries of the source, which are not always exact repeats. Equal entries are not always repeated.
Legend:
[1] = Metabolite analysis and in vivo stability, arterial blood and urine samples; parameters: species or system Wistar rats
Text: (§1) The experiments were realized corresponding to the German animal welfare regulations and institutional guidelines and with the permission of the local animal research committee at the Landesdirektion, Dresden. All experimental procedures are following the guidelines of the European Convention for the Protection of Vertebrate Animals used for Experimental and other Scientific Purposes (ETS No. 123). Male Wistar rats weighing 157.69 ± 17.10 g (mean ± SD, N = 35) were purchased from Unilever (HsdCpb:WU, Harlan Winkelmann, Borchen, Germany). Anesthetization was initiated and maintained by desflurane, and animals were put in the supine position and placed on a heating pad to maintain body temperature. A needle catheter was used for administration of the tracers in the tail vein. A second catheter was introduced into the right femoral artery for the extraction of blood samples for metabolite analysis, which was routinely done during SPECT/CT measurements.
Arterial blood plasma samples were taken during SPECT/CT examinations after 1, 3, 5, 10, 20, 30, 60, and 120 min. p.i., and the in vivo metabolism of [^177Lu]BPAMD, [^177Lu]BPAPD, [^177Lu]BPPED, [^177Lu]NO2AP^BP, [^177Lu]DOTA(M^BP)2, and [^177Lu]DO2A(P^BP)2 was analyzed. Plasma was separated by centrifugation (3 min, 11,000×g) followed by precipitation of the plasma proteins with ice-cold methanol (1.5 parts per 1 part plasma) and centrifugation (3 min, 11,000×g). The supernatants were analyzed by radio-TLC and HPLC using the abovementioned methods for quality control. Additionally, urine samples were treated in the same way prior radio-TLC and radio-HPLC analysis.

[2] = Ex vivo biodistribution of 177Lu-complexes in Wistar rats; conditions: for Biodistribution of radioactivity, Adipose tissue / Biodistribution of radioactivity, Adrenal gland / Biodistribution of radioactivity, Blood / Biodistribution of radioactivity, Brain / Biodistribution of radioactivity, Femur / Biodistribution of radioactivity, Harderian gland / Biodistribution of radioactivity, Heart / Biodistribution of radioactivity, Kidneys / Biodistribution of radioactivity, Liver / Biodistribution of radioactivity, Lung / Biodistribution of radioactivity, Muscle / Biodistribution of radioactivity, Pancreas / Biodistribution of radioactivity, Spleen / Biodistribution of radioactivity, Testes / Biodistribution of radioactivity, Thymus: i.v.
Text: as §1
The male Wistar rats received a short-term anesthetization by desflurane inhalation. Mean activities of 2.36 ± 0.27 MBq/kg of the ^177Lu-labelled tracers in isotonic saline were injected in a volume of 0.5 mL in the tail vein, with the following specific details: [^177Lu]citrate: 2.56 ± 0.07 MBq/kg, 128.58 body weight (BW, g), n = 4 (g); [^177Lu]BPAMD: 2.33 ± 0.11 MBq/kg, 159.41 BW (g), n = 4 (g); [^177Lu]BPAPD: 2.58 ± 0.24 MBq/kg, 156.38 BW (g), n = 4 (g); [^177Lu]BPPED: 2.27 ± 0.25 MBq/kg, 153.43 BW (g), n = 4 (g); [^177Lu]NO2AP^BP: 2.52 ± 0.25 MBq/kg, 173.82 BW (g), n = 4 (g); [^177Lu]DOTA(M^BP)2: 1.80 ± 0.10 MBq/kg, 181.64 BW (g), n = 4 (g); [^177Lu]DO2A(P^BP)2: 2.46 ± 0.15 MBq/kg, 150.60 BW (g), n = 4 (g). The compounds [^177Lu]DOTA(M^BP)2, [^177Lu]BPPED, and [^177Lu]BPAMD were further chosen for a biodistribution study after 8 days p.i. A mean activity of 19.0 ± 2.5 MBq/kg was injected. Animals were sacrificed after 5 min, 60 min, and 8 days p.i. Organs of interest were excised rapidly and weighed, and the ^177Lu activity was determined with a Wallac WIZARD automatic gamma counter (PerkinElmer, Germany) and decay corrected. The distribution data are expressed in %ID or are normalized to the BW as standard uptake value (SUV), which was calculated with the formula: SUV = (activity per g tissue)/(injected activity) × BW. The skeleton weight was calculated using the following: skeleton weight = 9.66 + 0.0355 × BW, and the total activities associated with the skeleton were calculated by using the activity concentration in the femur and the total skeleton weight.

[3] = 5 min p.i., mean of four animals
[4] = 60 min p.i., mean of four animals
[5] = 8 days p.i., mean for five animals

O=C(O)CN1CCN(CC(=O)O)CCN(CP(=O)(O)CC(P(=O)(O)O)P(=O)(O)O)CCN(CC(=O)O)CC1 [[^177Lu]BPPED, metal not drawn]
Blood half-life of the slow component (t1/2(β)) ([1]; arterial blood, single intravenous injection): 18.7 min | Metabolization in blood samples (radio-HPLC and TLC) ([1]; within a period of 120 min): no evidence of any metabolization | Ratio Bone/Adipose tissue ([2]; 5 min p.i.): 17.3 | Ratio Bone/Adrenal gland ([2]; 5 min p.i.): 5.9 | Ratio Bone/Blood ([2]; 5 min p.i.): 3.2 | Ratio Bone/Brain ([2]; 5 min p.i.): 104.0 | Ratio Bone/Harderian gland ([2]; 5 min p.i.): 10.4 | Ratio Bone/Heart ([2]; 5 min p.i.): 8.0 | Ratio Bone/Kidneys ([2]; 5 min p.i.): 1.3 | Ratio Bone/Liver ([2]; 5 min p.i.): 8.7 | Ratio Bone/Lung ([2]; 5 min p.i.): 5.5 | Ratio Bone/Muscle ([2]; 5 min p.i.): 17.3 | Ratio Bone/Pancreas ([2]; 5 min p.i.): 11.2 | Ratio Bone/Spleen ([2]; 5 min p.i.): 10.7 | Ratio Bone/Testes ([2]; 5 min p.i.): 11.6 | Ratio Bone/Thymus ([2]; 5 min p.i.): 10.9 | Biodistribution of radioactivity, Adipose tissue [2, 3]: 0.24 SUV | Biodistribution of radioactivity, Adrenal gland [2, 3]: 0.70 SUV | Biodistribution of radioactivity, Blood [2, 3]: 1.30 SUV | Biodistribution of radioactivity, Brain [2, 3]: 0.04 SUV | Biodistribution of radioactivity, Femur [2, 3]: 4.16 SUV | Biodistribution of radioactivity, Harderian gland [2, 3]: 0.40 SUV | Biodistribution of radioactivity, Heart [2, 3]: 0.52 SUV | Biodistribution of radioactivity, Kidneys [2, 3]: 3.09 SUV | Biodistribution of radioactivity, Liver [2, 3]: 0.48 SUV | Biodistribution of radioactivity, Lung [2, 3]: 0.75 SUV | Biodistribution of radioactivity, Muscle [2, 3]: 0.24 SUV | Biodistribution of radioactivity, Pancreas [2, 3]: 0.37 SUV | Biodistribution of radioactivity, Spleen [2, 3]: 0.39 SUV | Biodistribution of radioactivity, Testes [2, 3]: 0.36 SUV | Biodistribution of radioactivity, Thymus [2, 3]: 0.38 SUV | Ratio Bone/Adipose tissue ([2]; 60 min p.i.): 269.7 | Ratio Bone/Adrenal gland ([2]; 60 min p.i.): 72.5 | Ratio Bone/Blood ([2]; 60 min p.i.): 92.9 | Ratio Bone/Brain ([2]; 60 min p.i.): 419.9 | Ratio Bone/Harderian gland ([2]; 60 min p.i.): 36.4 | Ratio Bone/Heart ([2]; 60 min p.i.): 141.1 | Ratio Bone/Kidneys ([2]; 60 min p.i.): 14.9 | Ratio Bone/Liver ([2]; 60 min p.i.): 42.3 | Ratio Bone/Lung ([2]; 60 min p.i.): 67.5 | Ratio Bone/Muscle ([2]; 60 min p.i.): 355.8 | Ratio Bone/Pancreas ([2]; 60 min p.i.): 181.6 | Ratio Bone/Spleen ([2]; 60 min p.i.): 41.0 | Ratio Bone/Testes ([2]; 60 min p.i.): 185.1 | Ratio Bone/Thymus ([2]; 60 min p.i.): 212.0 | Biodistribution of radioactivity, Adipose tissue [2, 4]: 0.02 SUV | Biodistribution of radioactivity, Adrenal gland [2, 4]: 0.08 SUV | Biodistribution of radioactivity, Blood [2, 4]: 0.06 SUV | Biodistribution of radioactivity, Brain [2, 4]: 0.01 SUV | Biodistribution of radioactivity, Femur [2, 4]: 5.67 ± 0.10 SUV and 5.67 SUV | Biodistribution of radioactivity, Harderian gland [2, 4]: 0.16 SUV | Biodistribution of radioactivity, Heart [2, 4]: 0.04 SUV | Biodistribution of radioactivity, Kidneys [2, 4]: 0.38 SUV | Biodistribution of radioactivity, Liver [2, 4]: 0.13 SUV | Biodistribution of radioactivity, Lung [2, 4]: 0.08 SUV | Biodistribution of radioactivity, Muscle [2, 4]: 0.02 SUV | Biodistribution of radioactivity, Pancreas [2, 4]: 0.03 SUV | Biodistribution of radioactivity, Spleen [2, 4]: 0.14 SUV | Biodistribution of radioactivity, Testes [2, 4]: 0.03 SUV | Biodistribution of radioactivity, Thymus [2, 4]: 0.03 SUV | Ratio Bone/Adipose tissue ([2]; 8 days p.i.): 1231 | Ratio Bone/Adrenal gland ([2]; 8 days p.i.): 159 | Ratio Bone/Blood ([2]; 8 days p.i.): 5123 | Ratio Bone/Brain ([2]; 8 days p.i.): 365 | Ratio Bone/Harderian gland ([2]; 8 days p.i.): 46 | Ratio Bone/Heart ([2]; 8 days p.i.): 653 | Ratio Bone/Kidneys ([2]; 8 days p.i.): 59 | Ratio Bone/Liver ([2]; 8 days p.i.): 189 | Ratio Bone/Lung ([2]; 8 days p.i.): 637 | Ratio Bone/Muscle ([2]; 8 days p.i.): 192 | Ratio Bone/Pancreas ([2]; 8 days p.i.): 1104 | Ratio Bone/Spleen ([2]; 8 days p.i.): 246 | Ratio Bone/Testes ([2]; 8 days p.i.): 1214 | Ratio Bone/Thymus ([2]; 8 days p.i.): 933 | Biodistribution of radioactivity, Adipose tissue [2, 5]: 0.004 SUV | Biodistribution of radioactivity, Adrenal gland [2, 5]: 0.033 SUV | Biodistribution of radioactivity, Blood [2, 5]: 0.001 SUV | Biodistribution of radioactivity, Brain [2, 5]: 0.014 SUV | Biodistribution of radioactivity, Femur [2, 5]: 5.197 SUV | Biodistribution of radioactivity, Harderian gland [2, 5]: 0.113 SUV | Biodistribution of radioactivity, Heart [2, 5]: 0.008 SUV | Biodistribution of radioactivity, Kidneys [2, 5]: 0.088 SUV | Biodistribution of radioactivity, Liver [2, 5]: 0.027 SUV | Biodistribution of radioactivity, Lung [2, 5]: 0.008 SUV | Biodistribution of radioactivity, Muscle [2, 5]: 0.027 SUV | Biodistribution of radioactivity, Pancreas [2, 5]: 0.005 SUV | Biodistribution of radioactivity, Spleen [2, 5]: 0.021 SUV | Biodistribution of radioactivity, Testes [2, 5]: 0.004 SUV | Biodistribution of radioactivity, Thymus [2, 5]: 0.006 SUV | Total skeletal retention ([2]; 8 days p.i., calculated from femur activity concentration and total skeleton weight): constant over 8 days | Total skeleton retention ([2]; after 60 min, calculated from femur activity concentration and total skeleton weight): 56.3 ± 6.7 %ID

From PMC4715021, “^177Lu-labelled macrocyclic bisphosphonates for targeting bone metastasis in cancer treatment” (EJNMMI Research, 2016)
